Results from BindingDB's records for doi:10.1021/acs.jmedchem.6b00594 (Duquesne University, 2016).

Tests used:
[1] = Inhibition of human FR-alpha receptor expressed in Chinese hamster RT16 cells assessed as antiproliferative activity measured as reduction in cell viability after 96 hrs by Cell-Titer Blue fluorescence analysis
[2] = Inhibition of human PCFT expressed in Chinese hamster R2/PCFT4 cells assessed as antiproliferative activity measured as reduction in cell viability after 96 hrs by Cell-Titer Blue fluorescence analysis
[3] = Inhibition of human FR-beta receptor expressed in Chinese hamster D4 cells assessed as antiproliferative activity measured as reduction in cell viability after 96 hrs by Cell-Titer Blue fluorescence analysis
[4] = Inhibition of human RFC expressed in Chinese hamster PC43-10 cells assessed as antiproliferative activity measured as reduction in cell viability after 96 hrs by Cell-Titer Blue fluorescence analysis

Nc1nc2[nH]c(CCN(C(=O)C(F)(F)F)c3ccc(C(=O)N[C@@H](CCC(=O)O)C(=O)O)cc3)cc2c(=O)[nH]1
IC50 [1]: 1.1 nM
IC50 [2]: 109 nM
IC50 [3]: 0.45 nM
IC50 [4]: 783 nM

CC(=O)N(CCc1cc2c(=O)[nH]c(N)nc2[nH]1)c1ccc(C(=O)N[C@@H](CCC(=O)O)C(=O)O)cc1
IC50 [1]: 4.9 nM
IC50 [2]: 82 nM
IC50 [3]: 1.6 nM
IC50 [4]: 808 nM

Nc1nc2[nH]c(CCN(C=O)c3ccc(C(=O)N[C@@H](CCC(=O)O)C(=O)O)cc3)cc2c(=O)[nH]1
IC50 [1]: 3 nM
IC50 [2]: 89 nM
IC50 [3]: 0.53 nM
IC50 [4]: 642 nM

Nc1nc2[nH]c(CCNc3ccc(C(=O)N[C@@H](CCC(=O)O)C(=O)O)cc3)cc2c(=O)[nH]1
IC50 [1]: 3 nM
IC50 [2]: 87 nM
IC50 [3]: 0.62 nM
IC50 [4]: 510 nM

Nc1nc2[nH]c(CCSc3ccc(C(=O)N[C@@H](CCC(=O)O)C(=O)O)cc3)cc2c(=O)[nH]1
IC50 [1]: 0.51 nM
IC50 [2]: 267 nM
IC50 [3]: 0.34 nM
IC50 [4]: > 1000 nM

Nc1nc2[nH]c(CCOc3ccc(C(=O)N[C@@H](CCC(=O)O)C(=O)O)cc3)cc2c(=O)[nH]1
IC50 [1]: 1.9 nM
IC50 [2]: 58 nM
IC50 [3]: 2.6 nM
IC50 [4]: 641 nM
